Data set [1] has as its system astrocytes. Kind of data set: Cytokine secretion of LPS-treated astrocytes (multiplexing of conditioned media). As to conditions: conditioned media after 24 hours. It is filed as cell-based, rats.
Procedure: In order to more accurately study the above effect, the secretion of cytokines was observed simultaneously with the effect of inhibiting the activity of astrocytes. After 24 hours of treatment with LPS and drugs, conditioned media were collected and changes in pro-inflammatory cytokines (TNFα) and anti-inflammatory cytokines (IL-10) were examined.
The test system of the next data set is microglia. Kind of data set: Cytokine secretion of LPS-treated microglia (multiplexing of conditioned media). Particulars: conditioned media after 24 hours. It is filed as cell-based.
For data set [2], the system named is BV2 cells, a microglia cell line. Kind of data set: Inhibition of LPS-induced microglia activity (cell number, Iba1 fluorescence intensity). The class given is cell-based. Particulars: for fluorescence intensity of Iba1 (FIG. 8) / number of cells (FIG. 8): LPS-treated microglia, 24 hours. The procedure: (§1) BV2 cells were cultured in high glucose DMEM medium containing 10% FBS and penicillin-streptomycin solution (5000 units/ml penicillin, 5 mg/ml streptomycin, Corning, USA) in a cell incubator at 37° C. in 5% CO2, which was used by subculturing three times a week therein.
(§2) Cultured BV2 cells were harvested using 0.1% trypsin to obtain a population, and cultured in 96-well plates pre-coated with Poly-D-Lysine (Sigma).
BV2 cells, a microglia cell line, were treated with LPS to induce microglia activation and inflammation, and eleutheroside B was treated at a concentration of 1 mM to 0.1 nM. The proliferation number and morphology changes after 24 hours of eleutheroside B treatment were quantified, and the activity level of microglial cells was verified by the fluorescence intensity of Iba1 (FIG. 6).
In order to confirm the regulation of the inflammatory response through the inhibition of microglia activity by eleutheroside B in a more precise way, high content imaging was analyzed by classifying into the number of proliferated cells and the fluorescence intensity of Iba1, and the results are shown in FIG. 8.

Another data set has as its system neural stem cells. Kind of data set: Neurite activity from neural stem cells of B6;SJL-Tg(APPSWE)2576Kha transgenic mice. Particulars: 0.01 pg/mL and 1 pg/mL, compared to the control group. The class given is cell-based. The procedure:
(§3) B6;SJL-Tg(APPSWE)2576Kha, a genetically modified mouse for […], was used as an in-vitro brain disease model. Neural stem cells were isolated from subventricular zone (SVZ) tissues of transgenic newborn mice and neurospheres were cultured. In addition, neurosphere cells were induced to attach to the bottom with 5% FBS+F12/DMEM medium for 48 hours, and to observe differentiation potential, eleutheroside B in 5% BS+F12/DMEM medium was added to the cells, and neurite activity was observed under a microscope. In addition, the neuronal cell differentiation potential using the Neuro-2a cell line, which is a neuroblast, was confirmed. To confirm differentiation, neural differentiation markers such as DCX, Tuj1, neuroD, and NeuN were confirmed by qPCR.
In order to confirm the activity of neurite from neural stem cells according to eleutheroside B treatment, B6;SJL-Tg(APPSWE)2576Kha, a genetically modified mouse for degenerative brain disease, was used as an in-vitro brain disease model. Neural stem cells were isolated from the subventricular zone (SVZ) tissue of genetically modified newborn mice, and the number of cells to be used in the experiment was secured through neurosphere culture. […]

Another data set deals with astrocytes (GFAP). Kind of data set: Brain immunohistochemistry of astrocyte activity (GFAP) in hippocampus of 5×FAD. As to conditions: 50 or 150 mg/kg intraperitoneally twice a week. It is filed as in vivo, mouse. The procedure:
(§4) In 5×FAD, an animal model of Alzheimer's disease, amyloid protein is deposited from 2.5 months and cognitive function is impaired from 6 months. Accordingly, eleutheroside B (vehicle, 50 or 150 mg/kg) was intraperitoneally administered twice a week from 4 months, and working memory ability was measured at 6 months when cognitive function was impaired. The experimental groups were 3 animals each of WT+vehicle, TG+vehicle, TG+50 mg/kg (TG_E.B(L)), and TG+150 mg/kg (TG_E.B(H)) of the same age as TG. Working memory ability was measured with Y-maze, and pre-adaptation training for the maze was performed the day before the maze experiment.
(§5) In order to confine the pathological changes related to cognitive improvement, blood was removed by perfusion through the heart. The blood-free brain was fixed in 4% paraformaldehyde for one day, then made into a paraffin block and fabricated into 4 μm tissue sections for histological staining. The activities of astrocytes (GFAP) and microglia (Iba 1) were measured by confocal microscopy in the dentate gyrus, CA1, and CA3 regions of the hippocampus and the entorhinal cortex, which are major damaged areas in Alzheimer's disease.

Data set [3] has as its system astrocytes. Kind of data set: Inhibition of LPS-induced astrocyte activity (cell number, cell area, GFAP intensity; high content imaging). As to conditions: LPS-activated astrocytes. The class given is cell-based, rats. The procedure: The brains of 1-2 day old rats were excised, separated from the cerebral cortex, and cultured. That is, the […] cortex was divided into single cells in high-glucose DMEM medium containing 10% FBS and penicillin-streptomycin solution (5000 units/ml penicillin, 5 mg/ml streptomycin, Corning, USA), and cultured in a 75-cm2T flask. (0.5 hemispheres/flask) in a cell incubator at 5% CO2 and 37° C.
After 1 week of culture, microglia were removed by shaking at 250 rpm for 4 hours, and the cultured astrocytes were harvested using 0.1% trypsin to obtain an astrocyte population. Astrocytes were cultured in 6-well plates previously coated with Poly-D-Lysine (Sigma).
Astrocytes were used after primary culture was isolated from the brain of pup within 1 to 3 days after birth, and the separated astrocytes were treated with LPS at expressing the lowest concentration of IL-6. The drug treatment was performed simultaneously with LPS, and the activity of astrocytes was evaluated through the number of proliferated cells and changes in morphology (FIG. 2).

The subject of a further data set is microglia (Iba 1). Kind of data set: Brain immunohistochemistry of microglia activity (Iba 1) in hippocampus of 5×FAD. It is filed as in vivo, mouse. As to conditions: 50 or 150 mg/kg intraperitoneally twice a week. The procedure: as §4, §5
The test system of data set [4] is BV2 cells. The data set is described as follows: Cytotoxicity of eleutheroside B to microglia (CCK-8/WST-8 survival rate). It is filed as cell-based. Particulars: 24 hours, mean±standard deviation. The procedure:
as §1, §2
In order to check the cytotoxicity of eleutheroside B, BV2 cells (3×10^5 cells/well) were cultured in a 96-well culture plate for 24 hours, and then treated with various concentrations of eleutheroside B, followed by incubation for 24 hours. After 24 hours, the medium was removed and WST-8 [2-(2-methoxy-4-nitrophenyl)-3-(4-nitrophenyl)-5-(2,4-disulfophenyl)-2H-tetrazolium (Cell Counting Kit-8 (CCK-8), dojindo)] was added at a concentration of 100 uL/mL to induce a reduction reaction while incubating for 1 hour, and then absorbance (450 nm) was measured. Cell viability (%) (viability (%)=(treated group−negative control)/(positive control−negative control)×100) was calculated using the eleutheroside B treated group and the untreated control group.
(Tetrazolium dyes change colour on reduction, which living cells bring about.)

Data set [5] has as its system BV2 cells. As to conditions: according to the report; cited from earlier work.
The next data set has as its system Neuro-2a. Kind of data set: Neuronal differentiation marker analysis by qPCR in neuroblast cell line. As to conditions: compared to the control. The class given is cell-based. The procedure:
as §3
In order to examine this at a molecular level, RNA analysis of neuronal differentiation markers (Sox2, Nestin, NeuroD, DCX, Tuj-1, NeuN) was performed, and the results are shown in FIG. 11.
When confirming the neuronal differentiation marker, a neuroblast cell line, Neuro-2a was used, and the differentiation was confirmed by qPCR to observe if the amoeba-type metaphase cells were differentiated into neurons by the drug.

In the next data set the test system is 5×FAD. The data set is described as follows: Working memory ability (Y-maze) in 5×FAD Alzheimer's disease animal model. The class given is in vivo, mouse. Particulars: 50 or 150 mg/kg intraperitoneally twice a week from 4 months, measured at 6 months. The procedure: as §4
Working memory performance was performed by sequentially moving through three passages for 8 minutes in a Y-shaped maze to check whether the movement to the previous passage was remembered, and the degree of cognitive impairment was confirmed by calculating the ratio of sequentially crossing the three passages.

Setting [6] is: 1-10 nM drug, compared to LPS activity.

Results on two compounds are retold here after patent publication US20240122954A1 (YEP BIO CO. LTD., priority 2021, published 2024).

Regarding `COc1cc2c(cc1OC)C(=O)C(CC1CCN(Cc3ccccc3)CC1)C2` (centres unmarked) [donepezil, reference compound], in the data set with astrocytes [1], the “anti-inflammatory cytokine IL-10 secretion” value is reported as “did not affect cytokine secretion” and the “pro-inflammatory cytokine TNF-α secretion” value is recorded as “did not affect cytokine secretion”. For the same compound, in the data set on microglia, the “anti-inflammatory cytokine IL-10 secretion” value is given as “does not affect cytokine secretion” and the “pro-inflammatory cytokine TNF-α secretion” value is given as “does not affect cytokine secretion”. In addition, in [2], the “fluorescence intensity of Iba1 (FIG. 8)” value was “relatively less microglial activity inhibition pattern than eleutheroside B” and the “number of cells (FIG. 8)” value is “inhibiting microglia apoptosis”.
For `COc1cc(/C=C/CO)cc(OC)c1O[C@@H]1O[C@H](CO)[C@@H](O)[C@H](O)[C@H]1O` [eleutheroside B], in the data set with neural stem cells, the “neurites (FIG. 10)” value is “showed an increase in neurites”. In addition, in the data set with astrocytes (GFAP), the “activity of astrocytes / inflammation in CA1 of the hippocampus (FIG. 15)” value is “greatly reduced”. In addition, in the data set with astrocytes [1], the “anti-inflammatory cytokine IL-10 secretion” value is “increased” and the “pro-inflammatory cytokine TNF-α secretion” value was “decreased”. The “GFAP fluorescence intensity (FIG. 3)” value in the data set on astrocytes [3] (0.01 pg of eleutheroside B) is “reduced to almost the same intensity as the control”. For the same compound, in the data set on astrocytes [3] (setting [6]), the “cell area (FIG. 4)” value is “reduced”, the “intensity of GFAP (FIG. 4)” value is given as “reduced” and the “number of proliferated cells (FIG. 4)” value is given as “showed cell proliferation compared to LPS activity”. Moreover, in the data set with microglia (Iba 1), the “fluorescence intensity of Iba 1 in hippocampus (FIG. 16)” value is “lower than that of the Alzheimer's disease animal model” and the “microglia / inflammation in CA1 of the hippocampus (FIG. 18)” value is “greatly reduced almost as in the normal state”. Moreover, in the data set on microglia (Iba 1) (compared to the Alzheimer's disease animal model), the “inflammation / activity of microglial cells in all areas of the hippocampus (FIG. 17)” value is listed as “suppressed”. Moreover, in the data set on microglia, the “anti-inflammatory cytokine IL-10 secretion” value was “increased” and the “pro-inflammatory cytokine TNF-α secretion” value is listed as “significant decrease in the pro-inflammatory cytokine TNF-α was not confirmed”. In addition, the survival rate in the data set on BV2 cells [4] (20 uM) was 92±13.3%. In addition, in the data set on BV2 cells [4] (40 uM), the survival rate is 88±24.8%. Besides, the “concentration at which cytotoxicity was reported” value in the data set with BV2 cells [5] is 40 µM. Also, the “Iba1 fluorescence intensity (FIG. 7)” value in data set [2] (LPS-activated microglia, 10 nM) is recorded as “reduced to almost the same intensity as that of the control”. In addition, in data set [2], the “fluorescence intensity of Iba1 (FIG. 8)” value was “decrease” and the “number of cells (FIG. 8)” value is on record as “increased”. In the data set with Neuro-2a, the “DCX (differentiation marker)” value is recorded as “slight increase”, the “Tuj1 (differentiation marker)” value is on record as “slight increase”, the “nestine (expansion phase marker)” value is given as “significant increase” and the “neuN (integration phase marker)” value is reported as “significant increase”. Moreover, in the data set with Neuro-2a, the “neuroD (differentiation phase marker)” value is “significant increase” and the “sox2 (expansion phase marker)” value is “significant increase”. In addition, in the data set on 5×FAD, the “working memory ability (Y-maze)” value is on record as “almost the same remarkable cognitive ability improvement as the control group”.
